Earlier results, collected in US11168091B2, “Quantification and preparation of pharmaceutical grade cantharidin” (priority 2015, dated 2021).

Conditions: properly stored in a cool and dry place away from strong light and heat; crude preparation of Table 6

CC12C(=O)OC(=O)C1(C)C1CCC2O1 (stereo not shown) [crude cantharidin, 1,2-Dimethyl-3,6-epoxyperhydrophthalic anhydride]
shelf life: 3 years
